Test results: patent US10766929B2, “De novo designed hemagglutinin binding proteins” (UNIVERSITY OF WASHINGTON, priority 2017, dated 2020)
≈ marks a conversion by molar mass, not a printed value. Positions of bridges follow the written chain, without caps; N, C: chain ends. Residues, ends and D or L forms follow the SMILES beside them. No end group written: not given here.

How the values were obtained:
[1] = system: flu virus strains Ca0409 and Ft. Monmout; details: both strains
[2] = system: H1N1 (CA09) influenza virus; design: species or system Ferrets; details: in vivo
PR8 influenza virus = format: cell-based, influenza virus (Madin-Darby Canine Kidney Epithelial Cells)
biotinylated HA proteins = format: physicochemical, influenza
[3] = system: A/California/04/09 (H1N1) (CA09); design: species or system BALB/c mice; details: mouse, in vivo
CA09 influenza virus = format: cell-based, influenza virus (Madin-Darby Canine Kidney Epithelial Cells)

Compound | EC50 for inhibition of viral replication in vitro (Virus Ft. Monmouth) | EC50 for inhibition of viral replication in vitro (Virus Ca0409) | IC50 against flu virus strains Ca0409 and Ft. Monmout [1] | changes in temperature [2] | clinical signs of disease [2] | weight loss [2] | EC50 fold lower than FI6v3 and HB36.6 on a mass basis (PR8 influenza virus) | EC50 versus FI6v3 and HB36.6 on a molar basis (PR8 influenza virus) | loss of binding activity after high temperature exposure (biotinylated HA proteins) | dose fold lower on a mass basis than the FI6v3 dose required for equivalent protection [3] | survival [3] | weight loss [3] | protection ([3]; iv) | EC50 fold lower than FI6v3 and HB36.6 on a mass basis (CA09 influenza virus) | EC50 versus FI6v3 and HB36.6 on a molar basis (CA09 influenza virus)
CC[C@H](C)[C@@H]1NC(=O)[C@H](CCC(=O)O)NC(=O)[C@H](C)NC(=O)[C@H](C)NC(=O)[C@H]([C@@H](C)O)NC(=O)[C@H](CCC(N)=O)NC(=O)[C@H](C)NC(=O)[C@H](C)NC(=O)[C@H](Cc2ccccc2)NC(=O)[C@H](CC(C)C)NC(=O)[C@H]([C@@H](C)O)NC(=O)[C@H]([C@@H](C)O)NC(=O)[C@H](Cc2ccccc2)NC(=O)[C@H](CO)NC(=O)[C@H](CCC(N)=O)NC(=O)[C@H](CCC(=O)O)NC(=O)[C@H]([C@@H](C)CC)NC(=O)[C@@H](N)CSSC[C@@H](C(=O)O)NC(=O)[C@H](C(C)C)NC(=O)[C@H](Cc2c[nH]cn2)NC(=O)[C@H](CC(C)C)NC(=O)[C@H](CCCNC(=N)N)NC(=O)[C@H](Cc2c[nH]c3ccccc23)NC(=O)[C@H](CC(N)=O)NC(=O)CNC(=O)[C@H](CC(N)=O)NC(=O)[C@H](CC(=O)O)NC(=O)[C@H](CCC(N)=O)NC(=O)[C@H](CCSC)NC(=O)[C@H]([C@@H](C)CC)NC(=O)[C@H](CCCCN)NC(=O)[C@H](C(C)C)NC(=O)[C@H]([C@@H](C)O)NC(=O)[C@H](Cc2ccc(O)cc2)NC(=O)CNC(=O)[C@H](Cc2ccccc2)NC(=O)[C@H](C)NC(=O)[C@H](CCCNC(=N)N)NC(=O)[C@H](Cc2c[nH]c3ccccc23)NC1=O [AQW CS15989] (H-CIEQSFTTLFAAQTAAEIWRAFGYTVKIMQDNGNWRLHVC-OH; disulfide 1-40; N-terminus and C-terminus assumed) | 10 ng/mL | 10 ng/mL | – | – | – | – | – | – | – | – | – | – | – | – | –
CC[C@H](C)[C@@H]1NC(=O)[C@H](CCC(=O)O)NC(=O)[C@H](C)NC(=O)[C@H](C)NC(=O)[C@H]([C@@H](C)O)NC(=O)[C@H](CCC(N)=O)NC(=O)[C@@H]2CSSC[C@H](NC(=O)[C@H](CC(N)=O)NC(=O)CNC(=O)[C@H](CC(N)=O)NC(=O)[C@H](CC(=O)O)NC(=O)[C@H](C(C)C)NC(=O)[C@H](CCSC)NC(=O)[C@H]([C@@H](C)CC)NC(=O)[C@H](CCCCN)NC(=O)[C@H](C(C)C)NC(=O)[C@H]([C@@H](C)O)NC(=O)[C@H](Cc3ccc(O)cc3)NC(=O)CNC(=O)[C@H](Cc3ccccc3)NC(=O)[C@H](C)NC(=O)[C@H](CCCNC(=N)N)NC(=O)[C@H](Cc3c[nH]c4ccccc34)NC1=O)C(=O)N[C@@H](CCCNC(=N)N)C(=O)N[C@@H](CC(C)C)C(=O)N[C@@H](Cc1c[nH]cn1)C(=O)N[C@@H](C(C)C)C(=O)N[C@H](C(=O)O)CSSC[C@H](N)C(=O)N[C@@H]([C@@H](C)CC)C(=O)N[C@@H](CCC(=O)O)C(=O)N[C@@H](CCC(N)=O)C(=O)N[C@@H](CO)C(=O)N[C@@H](Cc1ccccc1)C(=O)N[C@@H]([C@@H](C)O)C(=O)N[C@@H]([C@@H](C)O)C(=O)N[C@@H](CC(C)C)C(=O)N[C@@H](Cc1ccccc1)C(=O)N[C@@H](C)C(=O)N2 [HB1.6928.2.3] (H-CIEQSFTTLFACQTAAEIWRAFGYTVKIMVDNGNCRLHVC-OH; disulfide 1-40, 12-35; N-terminus and C-terminus assumed) | 0.02 ng/mL | – | ~0.02 ng/mL (≈ 0.00441 nM) | no significant changes in temperature | minimal clinical signs of disease | no significant weight loss | more than 100 fold | comparable | no detectable loss of binding | 100 fold | 100% | < 10% | little protection | more than 100 fold | comparable
TIEQSFTTLFAAQTAAEIWRAFGYTVKIMQDNGNWRLHVT [TAWQT CS15990] | 2 ng/mL | 20 ng/mL | – | – | – | – | – | – | – | – | – | – | – | – | –
